Assay: mn = molality of the nth substance listed, in mol/kg
Conditions: 101 kPa, Liquid, Sing-around technique in a fixed-path interferometer

CN(CCO)CCO [N-methyldiethanolamine] + O
speed of sound [m/s]
Conditions	m1 = 0.3067	m1 = 0.5017	m1 = 0.7035	m1 = 0.8982	m1 = 1.088	m1 = 1.357	m1 = 1.652	m1 = 2.161
283.15 K	1474.2	1489.7	1505.1	1519.3	1532.8	1550.9	1569.5	1598.7
298.15 K	1520	1532.9	1545.8	1557.6	1568.7	1583.6	1598.9	1622.6
313.15 K	1547.7	1557.7	1567.7	1576.9	1585.5	1597	1608.8	1626.9
